Marks after values point to notes of the source that are not given here.
Tested on: plasma norepinephrine
Assay: Plasma norepinephrine (HPLC with electrochemical detection)
Conditions: for Norepinephrine, ΔWeek 12 Mean ± SEM / Norepinephrine, ΔWeek 12 Median / Norepinephrine, ΔWeek 24 Mean ± SEM / Norepinephrine, ΔWeek 24 Median: change from baseline
[1] = Europe excluding Hungary (n = 48)

COCCc1ccc(OCC(O)CNC(C)C)cc1 (stereo not shown) [metoprolol, metoprolol succinate, reference compound]
Plasma norepinephrine, Week 4 Mean (Canada): 613 pg/mL | Plasma norepinephrine, Week 4 Median (Canada): 605 pg/mL | Plasma norepinephrine, change from baseline to Week 4, Mean ±SEM (Canada): -97 pg/mL | Plasma norepinephrine, change from baseline to Week 4, Median (Canada): -59 pg/mL | Norepinephrine, Baseline Mean ± SD (Canada (n = 59)): 674 ± 429 pg/mL | Norepinephrine, Baseline Median (Canada (n = 59)): 541 pg/mL | Norepinephrine, Week 12 Mean ± SD (Canada (n = 59)): 577 ± 273 pg/mL | Norepinephrine, Week 12 Median (Canada (n = 59)): 563 pg/mL | Norepinephrine, Week 24 Mean ± SD (Canada (n = 59)): 722 ± 303 pg/mL | Norepinephrine, Week 24 Median (Canada (n = 59)): 690 pg/mL | Change in NE at Week 4, median (Q1, Q3) (Entire Cohort): −10 (198,121) pg/ml | Plasma norepinephrine, Week 4 Mean (Entire Cohort): 617 pg/mL | Plasma norepinephrine, Week 4 Median (Entire Cohort): 570 pg/mL | Plasma norepinephrine, change from baseline to Week 4, Mean ±SEM (Entire Cohort): 36 ± 32 pg/mL | Plasma norepinephrine, change from baseline to Week 4, Median (Entire Cohort): -10 pg/mL | Norepinephrine, Baseline Mean ± SD (Entire Cohort (n = 267)): 664 ± 359 pg/mL | Norepinephrine, Baseline Median (Entire Cohort (n = 267)): 590 pg/mL | Norepinephrine, Week 12 Mean ± SD (Entire Cohort (n = 267)): 605 ± 266 pg/mL | Norepinephrine, Week 12 Median (Entire Cohort (n = 267)): 566 pg/mL | Norepinephrine, Week 24 Mean ± SD (Entire Cohort (n = 267)): 690 ± 414 pg/mL | Norepinephrine, Week 24 Median (Entire Cohort (n = 267)): 586 pg/mL | Plasma norepinephrine, change from baseline to Week 4, Mean ±SEM (Entire Cohort, listed as Met): -36 pg/mL | Plasma norepinephrine, Week 4 Mean (Europe excluding Hungary): 676 pg/mL | Plasma norepinephrine, Week 4 Median (Europe excluding Hungary): 612 pg/mL | Plasma norepinephrine, change from baseline to Week 4, Mean ±SEM (Europe excluding Hungary): -18 pg/mL | Plasma norepinephrine, change from baseline to Week 4, Median (Europe excluding Hungary): -12 pg/mL | Norepinephrine, Baseline Mean ± SD [1]: 675 ± 250 pg/mL | Norepinephrine, Baseline Median [1]: 592 pg/mL | Norepinephrine, Week 12 Mean ± SD [1]: 640 ± 283 pg/mL | Norepinephrine, Week 12 Median [1]: 614 pg/mL | Norepinephrine, Week 24 Mean ± SD [1]: 904 ± 348 pg/mL | Norepinephrine, Week 24 Median [1]: 924 pg/mL | Plasma norepinephrine, Week 4 Mean (Hungary): 530 pg/mL | Plasma norepinephrine, Week 4 Median (Hungary): 460 pg/mL | Plasma norepinephrine, change from baseline to Week 4, Mean ±SEM (Hungary): -35 pg/mL | Plasma norepinephrine, change from baseline to Week 4, Median (Hungary): -70 pg/mL | Norepinephrine, Baseline Mean ± SD (Hungary (n = 33)): 627 ± 258 pg/mL | Norepinephrine, Baseline Median (Hungary (n = 33)): 571 pg/mL | Norepinephrine, Week 12 Mean ± SD (Hungary (n = 33)): 716 ± 308 pg/mL | Norepinephrine, Week 12 Median (Hungary (n = 33)): 590 pg/mL | Norepinephrine, Week 24 Mean ± SD (Hungary (n = 33)): 716 ± 301 pg/mL | Norepinephrine, Week 24 Median (Hungary (n = 33)): 668 pg/mL | Plasma norepinephrine, Week 4 Mean (U.S.): 616 pg/mL | Plasma norepinephrine, Week 4 Median (U.S.): 556 pg/mL | Plasma norepinephrine, change from baseline to Week 4, Mean ±SEM (U.S.): -18 pg/mL | Plasma norepinephrine, change from baseline to Week 4, Median (U.S.): +29 pg/ml | Norepinephrine, Baseline Mean ± SD (U.S. (n = 127)): 664 ± 386 pg/mL | Norepinephrine, Baseline Median (U.S. (n = 127)): 599 pg/mL | Norepinephrine, Week 12 Mean ± SD (U.S. (n = 127)): 576 ± 246 pg/mL | Norepinephrine, Week 12 Median (U.S. (n = 127)): 560 pg/mL | Norepinephrine, Week 24 Mean ± SD (U.S. (n = 127)): 639 ± 472 pg/mL | Norepinephrine, Week 24 Median (U.S. (n = 127)): 519 pg/mL | Within group NE change (Week 4, any of the regions): not associated with a within group NE change | Norepinephrine, ΔWeek 12 Mean ± SEM (Canada (n = 59)): -111 ± 57 pg/mL | Norepinephrine, ΔWeek 12 Median (Canada (n = 59)): -85 pg/mL | Norepinephrine, ΔWeek 24 Mean ± SEM (Canada (n = 59)): 18 ± 75 pg/mL | Norepinephrine, ΔWeek 24 Median (Canada (n = 59)): -10 pg/mL | Norepinephrine, ΔWeek 12 Mean ± SEM (Entire Cohort (n = 267)): -64 ± 30 pg/mL | Norepinephrine, ΔWeek 12 Median (Entire Cohort (n = 267)): -57 pg/mL | Norepinephrine, ΔWeek 24 Mean ± SEM (Entire Cohort (n = 267)): 2 ± 33 pg/mL | Norepinephrine, ΔWeek 24 Median (Entire Cohort (n = 267)): -24 pg/mL | Norepinephrine, ΔWeek 12 Mean ± SEM [1]: -52 ± 65 pg/mL | Norepinephrine, ΔWeek 12 Median [1]: -76 pg/mL | Norepinephrine, ΔWeek 24 Median [1]: 232 pg/mL | Norepinephrine, ΔWeek 12 Mean ± SEM (Hungary (n = 33)): 144 ± 89 pg/mL | Norepinephrine, ΔWeek 12 Median (Hungary (n = 33)): 37 pg/mL | Norepinephrine, ΔWeek 24 Mean ± SEM (Hungary (n = 33)): 148 ± 336 pg/mL | Norepinephrine, ΔWeek 24 Median (Hungary (n = 33)): -42 pg/mL | Norepinephrine, ΔWeek 12 Mean ± SEM (U.S. (n = 127)): -100 ± 43 pg/mL | Norepinephrine, ΔWeek 12 Median (U.S. (n = 127)): -66 pg/mL | Norepinephrine, ΔWeek 24 Mean ± SEM (U.S. (n = 127)): -46 ± 40 pg/mL | Norepinephrine, ΔWeek 24 Median (U.S. (n = 127)): -46 pg/mL | Reduction in NE (week 12, entire cohort): 57 pg/mL

CC(C)(Cc1c[nH]c2ccccc12)NCC(O)COc1ccccc1C#N (stereo not shown) [bucindolol, 2-(3-(1-(1H-indol-3-yl)-2-methylpropan-2-ylamino)-2-hydroxypropoxy)benzonitrile]
Plasma norepinephrine, Week 4 Mean (Canada): 583 pg/mL | Plasma norepinephrine, Week 4 Median (Canada): 551 pg/mL | Plasma norepinephrine, change from baseline to Week 4, Mean ±SEM (Canada): -59 pg/mL | Plasma norepinephrine, change from baseline to Week 4, Median (Canada): -1 pg/mL | Norepinephrine, Baseline Mean ± SD (Canada (n = 59)): 642 ± 341 pg/mL | Norepinephrine, Baseline Median (Canada (n = 59)): 522 pg/mL | Norepinephrine, Week 12 Mean ± SD (Canada (n = 59)): 528 ± 252 pg/mL | Norepinephrine, Week 12 Median (Canada (n = 59)): 484 pg/mL | Norepinephrine, Week 24 Mean ± SD (Canada (n = 59)): 623 ± 276 pg/mL | Norepinephrine, Week 24 Median (Canada (n = 59)): 564 pg/mL | Change in NE at Week 4, median (Q1, Q3) (Entire Cohort): −101 (−241, 43)* pg/ml | Plasma norepinephrine, Week 4 Mean (Entire Cohort): 563 pg/mL | Plasma norepinephrine, Week 4 Median (Entire Cohort): 500 pg/mL | Plasma norepinephrine, change from baseline to Week 4, Mean ±SEM (Entire Cohort): -124 ± 26 pg/mL | Plasma norepinephrine, change from baseline to Week 4, Median (Entire Cohort): -101 pg/mL | Norepinephrine, Baseline Mean ± SD (Entire Cohort (n = 267)): 682 ± 349 pg/mL | Norepinephrine, Baseline Median (Entire Cohort (n = 267)): 607 pg/mL | Norepinephrine, Week 12 Mean ± SD (Entire Cohort (n = 267)): 570 ± 275 pg/mL | Norepinephrine, Week 12 Median (Entire Cohort (n = 267)): 520 pg/mL | Norepinephrine, Week 24 Mean ± SD (Entire Cohort (n = 267)): 631 ± 329 pg/mL | Norepinephrine, Week 24 Median (Entire Cohort (n = 267)): 545 pg/mL | Plasma norepinephrine, change from baseline to Week 4, Mean ±SEM (Entire Cohort, listed as Buc): -124 pg/mL | Plasma norepinephrine, Week 4 Mean (Europe excluding Hungary): 604 pg/mL | Plasma norepinephrine, Week 4 Median (Europe excluding Hungary): 540 pg/mL | Plasma norepinephrine, change from baseline to Week 4, Mean ±SEM (Europe excluding Hungary): -126 pg/mL | Plasma norepinephrine, change from baseline to Week 4, Median (Europe excluding Hungary): -129 pg/mL | Norepinephrine, Baseline Mean ± SD [1]: 753 ± 375 pg/mL | Norepinephrine, Baseline Median [1]: 691 pg/mL | Norepinephrine, Week 12 Mean ± SD [1]: 683 ± 318 pg/mL | Norepinephrine, Week 12 Median [1]: 611 pg/mL | Norepinephrine, Week 24 Mean ± SD [1]: 798 ± 459 pg/mL | Norepinephrine, Week 24 Median [1]: 729 pg/mL | Plasma norepinephrine, Week 4 Mean (Hungary): 576 pg/mL | Plasma norepinephrine, Week 4 Median (Hungary): 525 pg/mL | Plasma norepinephrine, change from baseline to Week 4, Mean ±SEM (Hungary): -208 pg/mL | Plasma norepinephrine, change from baseline to Week 4, Median (Hungary): −213* pg/ml | Norepinephrine, Baseline Mean ± SD (Hungary (n = 33)): 767 ± 270 pg/mL | Norepinephrine, Baseline Median (Hungary (n = 33)): 792 pg/mL | Norepinephrine, Week 12 Mean ± SD (Hungary (n = 33)): 638 ± 254 pg/mL | Norepinephrine, Week 12 Median (Hungary (n = 33)): 690 pg/mL | Norepinephrine, Week 24 Mean ± SD (Hungary (n = 33)): 711 ± 267 pg/mL | Norepinephrine, Week 24 Median (Hungary (n = 33)): 736 pg/mL | Plasma norepinephrine, Week 4 Mean (U.S.): 529 pg/mL | Plasma norepinephrine, Week 4 Median (U.S.): 473 pg/mL | Plasma norepinephrine, change from baseline to Week 4, Mean ±SEM (U.S.): -136 pg/mL | Plasma norepinephrine, change from baseline to Week 4, Median (U.S.): -101 pg/mL | Norepinephrine, Baseline Mean ± SD (U.S. (n = 127)): 650 ± 362 pg/mL | Norepinephrine, Baseline Median (U.S. (n = 127)): 598 pg/mL | Norepinephrine, Week 12 Mean ± SD (U.S. (n = 127)): 529 ± 267 pg/mL | Norepinephrine, Week 12 Median (U.S. (n = 127)): 466 pg/mL | Norepinephrine, Week 24 Mean ± SD (U.S. (n = 127)): 585 ± 336 pg/mL | Norepinephrine, Week 24 Median (U.S. (n = 127)): 498 pg/mL | Degree of reduction in NE by median values (Week 4, Hungary): 213 pg/mL | Degree of reduction in NE by median values (Week 4, U.S.): 101 pg/mL | Degree of reduction in NE by median values (Week 4, rest of Europe): 121 pg/mL | Reduction in NE (Week 12, Canada): 100 pg/mL | Reduction in NE (Week 24, Canada): 21 pg/mL | Reduction in NE (Week 24, Hungary): 193 pg/mL | Reduction in NE (Week 24, U.S.): 46 pg/mL | Norepinephrine, ΔWeek 12 Mean ± SEM (Canada (n = 59)): -133 ± 48 pg/mL | Norepinephrine, ΔWeek 12 Median (Canada (n = 59)): -100 pg/mL | Norepinephrine, ΔWeek 24 Mean ± SEM (Canada (n = 59)): -38 ± 54 pg/mL | Norepinephrine, ΔWeek 24 Median (Canada (n = 59)): -21 pg/mL | Norepinephrine, ΔWeek 12 Mean ± SEM (Entire Cohort (n = 267)): -118 ± 27 pg/mL | Norepinephrine, ΔWeek 12 Median (Entire Cohort (n = 267)): -100 pg/mL | Norepinephrine, ΔWeek 24 Mean ± SEM (Entire Cohort (n = 267)): -64 ± 31 pg/mL | Norepinephrine, ΔWeek 24 Median (Entire Cohort (n = 267)): -47 pg/mL | Norepinephrine, ΔWeek 12 Mean ± SEM [1]: -34 ± 51 pg/mL | Norepinephrine, ΔWeek 12 Median [1]: -55 pg/mL | Norepinephrine, ΔWeek 24 Mean ± SEM [1]: 56 ± 152 pg/mL | Norepinephrine, ΔWeek 24 Median [1]: -82 pg/mL | Norepinephrine, ΔWeek 12 Mean ± SEM (Hungary (n = 33)): -172 ± 63 pg/mL | Norepinephrine, ΔWeek 12 Median (Hungary (n = 33)): -171 pg/mL | Norepinephrine, ΔWeek 24 Mean ± SEM (Hungary (n = 33)): -132 ± 296 pg/mL | Norepinephrine, ΔWeek 24 Median (Hungary (n = 33)): -193 pg/mL | Norepinephrine, ΔWeek 12 Mean ± SEM (U.S. (n = 127)): -128 ± 49 pg/mL | Norepinephrine, ΔWeek 12 Median (U.S. (n = 127)): -86 pg/mL | Norepinephrine, ΔWeek 24 Mean ± SEM (U.S. (n = 127)): -86 ± 40 pg/mL | Norepinephrine, ΔWeek 24 Median (U.S. (n = 127)): -46 pg/mL | Degree of reduction in NE by median values (week 4, entire cohort): 101 pg/mL | Reduction in NE (week 24, entire cohort): 47 pg/mL

Reference: patent publication US10925856B2, “Methods and compositions involving bucindolol for the treatment of atrial fibrillation” (priority 2018, dated 2021)
